Reference: patent US11872228B2, “Pharmaceutical composition containing thiamine derivative for prevention or treatment of sepsis” (KYUNGPOOK NATIONAL UNIVERSITY INDUSTRY-ACADEMIC COOPERATION …, priority 2021, dated 2024)
Where two headings read alike, the source gives them in different places.

Legend:
TNFα [1] = test: Inhibition of TNFα expression in LPS-activated dendritic cells (ELISA of supernatants); assay type: cell-based, C57BL/6J male mice; conditions: for TNFα (pg/mL): dendritic cells, 100 ng/mL LPS 18 h
Experimental: (§1) The dendritic cells at 1×10^6 cells/mL were treated with benfotiamine and fursultiamine at different concentrations of 0, 1, 10, and 100 and allithiamine at different concentrations of 0, 1, and 10 μM.
Thereafter, the dendritic cells were activated with 100 ng/mL LPS for 18 hours.

IL-1β [2] = test: Inhibition of IL-1β expression in LPS-primed, ATP-treated dendritic cells; assay type: cell-based, C57BL/6J male mice; conditions: for IL-1β: LPS priming + 5 mM ATP
Experimental: Bone marrow was extracted from the legs of six- to eight-week old C57BL/6J male mice, and subjected to red blood cell (RBC) lysis, followed by differentiation into dendritic cells in RPMI 1640 medium (10% fetal bovine serum (FBS) and 1% penicillin-streptomycin) along with 20 ng/ml granulocyte-macrophage colony-stimulating factor (GM-CSF) for six days. The dendritic cells at 1×10^6 cells/mL were treated with benfotiamine and fursultiamine at different concentrations of 0, 1, 10, and 100 and allithiamine at different concentrations of 0, 1, and 10 μM.
The dendritic cells were subjected to pro-IL1b priming by the treatment with 500 ng/mL LPS for 3 hours, and then treated with benfotiamine at 0, 10, 50, or 100 and fursultiamine at 0, 10, 50, or 100 μM, for 15 minutes. Then, pro-IL1b was converted into IL-1β through pro-IL1b cleavage, followed by 5 mM ATP treatment for inducing inflammasome formation.

CD86 [3] = test: CD86 expression in CD11c+ dendritic cells by flow cytometry; assay type: cell-based, C57BL/6J male mice; conditions: 50 μM, 100 ng/mL LPS
IL-1β [4] = system: IL-1β
CD86 [5] = test: CD86 expression in CD11c+ dendritic cells by flow cytometry; assay type: cell-based, C57BL/6J male mice
Experimental: as §1
(§2) The dendritic cells were measured for CD40 and CD86 in CD11c+ cells by flow cytometry, and the results are shown in FIGS. 6A and 6B and Tables 5 and 6.

CD40 = CD40 expression in CD11c+ dendritic cells by flow cytometry; assay type: cell-based, C57BL/6J male mice
Experimental: as §1, §2

TNFα [6] = test: Inhibition of TNFα expression in LPS-activated dendritic cells (ELISA of supernatants); assay type: cell-based, C57BL/6J male mice; conditions: for TNFα expression level relative to LPS alone: LPS-activated dendritic cells
[7] = system: LPS-induced sepsis mouse model
Experimental: (The signs of the moribund state: impaired mobility, inability to maintain upright position, prolonged lack of activity and labored breathing)
Six- to eight-week old C57BL/6J male mice were grouped, each group containing seven mice. The whole experimental schedule is shown FIG. 1. The mice were fed fursultiamine 24 hours and 30 minutes before intraperitoneal injection of 40 mg/kg LPS, and then again administered fursultiamine 6 hours after the intraperitoneal injection, and then the survival rates of the mice were monitored and the results are shown in FIG. 2 and Table 1.

[8] = 1 μM, dendritic cells, 100 ng/mL LPS
[9] = 10 μM, dendritic cells, 100 ng/mL LPS
[10] = 100 μM, dendritic cells not stimulated by LPS
[11] = 100 μM, dendritic cells, 100 ng/mL LPS

CC(=C(CCO)SSCC1CCCO1)N(C=O)Cc1cnc(C)nc1N (stereo in doubt) [Fursultiamine, fursultiamine]
TNFα (pg/mL) (TNFα [1]; 1 μM): 4,954.64 pg/mL
TNFα expression level relative to LPS alone (TNFα [1]; 10 μM, LPS-activated dendritic cells): about 68.60%
TNFα (pg/mL) (TNFα [1]; 10 μM): 3,600.63 pg/mL
TNFα (pg/mL) (TNFα [1]; 100 μM): 1,628.26 pg/mL
IL-1β (IL-1β [2]; 10 μM): 878.0075 pg/mL
IL-1β expression level relative to LPS + ATP alone (IL-1β [2]; 50 μM): about 85.8237%
IL-1β (IL-1β [2]; 50 μM): 799.4891 pg/mL
IL-1β expression level relative to LPS + ATP alone (IL-1β [2]; 100 μM): about 63.6037%
IL-1β (IL-1β [2]; 100 μM): 592.4987 pg/mL
CD86 (Mean fluorescence intensity; MFI) (CD86 [3]): 1,275 MFI
IL-1β (IL-1β [4]; fursultiamine (50 mg/kg as in table; 100 mg/kg in text) along with LPS, 0 h): 4.483 pg/mL
IL-1β (IL-1β [4]; fursultiamine along with LPS, 1 h): 6.115 pg/mL
IL-1β (IL-1β [4]; fursultiamine along with LPS, 3 h): 96.715 pg/mL
IL-1β (IL-1β [4]; fursultiamine along with LPS, 6 h): 186.088 pg/mL
IL-1β expression level relative to the control without administration (IL-1β [4]; fursultiamine along with LPS, 6 hours): about 54.936%
IL-1β (IL-1β [4]; fursultiamine along with LPS, 12 h): 495.824 pg/mL
IL-1β expression level relative to the control without administration (IL-1β [4]; fursultiamine along with LPS, 12 hours): about 60.777%
IL-1β (IL-1β [4]; fursultiamine along with LPS, 18 h): 171.451 pg/mL
IL-1β expression level relative to the control without administration (IL-1β [4]; fursultiamine along with LPS, 18 hours): about 29.673%
CD86 (Mean fluorescence intensity; MFI) (CD86 [5]; [8]): 2,684 MFI
CD86 (Mean fluorescence intensity; MFI) (CD86 [5]; [9]): 2,864 MFI
CD86 expression level relative to LPS alone (CD86 [5]; 100 μM, dendritic cells): about 13%
CD86 (Mean fluorescence intensity; MFI) (CD86 [5]; [10]): 382 MFI
CD86 (Mean fluorescence intensity; MFI) (CD86 [5]; [11]): 351 MFI
CD40 (Mean fluorescence intensity; MFI) (CD40; [8]): 1,992 MFI
CD40 (Mean fluorescence intensity; MFI) (CD40; [9]): 2,026 MFI
CD40 expression level relative to LPS alone (CD40; 100 μM, dendritic cells): about 62%
CD40 (Mean fluorescence intensity; MFI) (CD40; [10]): 253 MFI
CD40 (Mean fluorescence intensity; MFI) (CD40; [11]): 1,245 MFI
TNFα expression level relative to LPS alone (TNFα [6]; 50 μM): about 57.22%
TNFα (pg/mL) (TNFα [6]; 50 μM, dendritic cells, 100 ng/mL LPS 18 h): 3,003.47 pg/mL
TNFα expression level relative to LPS alone (TNFα [6]; 100 μM): about 31.02%
TNFα (TNFα [6]; [10]): 38.37 pg/mL
Survival despite LPS injection (in words) ([7]; fed 100 mg/kg, 40 mg/kg LPS i.p.): not dead
Percent survival (%) ([7]; fursultiamine 100 mg/kg fed 24 h and 30 min before and 6 h after 40 mg/kg LPS i.p., 0 d): 100%
Percent survival (%) ([7]; fursultiamine 100 mg/kg fed, 40 mg/kg LPS i.p., 1 d): 100%
Percent survival (%) ([7]; fursultiamine 100 mg/kg fed, 40 mg/kg LPS i.p., 2 d): 100%
Percent survival (%) ([7]; fursultiamine 100 mg/kg fed, 40 mg/kg LPS i.p., 3 d): 100%
Percent survival (%) ([7]; fursultiamine 100 mg/kg fed, 40 mg/kg LPS i.p., 4 d): 100%
Percent survival (%) ([7]; fursultiamine 100 mg/kg fed, 40 mg/kg LPS i.p., 5 d): 100%
Percent survival (%) ([7]; fursultiamine 100 mg/kg fed, 40 mg/kg LPS i.p., 6 d): 100%
Percent survival (%) ([7]; fursultiamine 100 mg/kg fed, 40 mg/kg LPS i.p., 7 d): 100%
